Patent US20030175216A1, “Oral antimicrobial and anti-odor compositions” (Innoscent LTD., priority 2001, published 2003)

Columns and labels:
[1] = test system: odor formation in freshly-taken morning saliva; test: Inhibition of in vitro odor formation by higher alcohols (saliva in decarboxylase medium); format: cell-based; conditions: for effect on in vitro odor formation (summary): 10-50 μl of 1% solution
Method: A series of test tubes were prepared, each containing 5 ml of decarboxylase medium (0.5% peptone, 0.3% yeast extract, 0.1% dextrose and 0.02% bromocresol purple). […] The tubes were incubated at 37° C. for three days. Following incubation, the odor was determined by a panel of odor judges, using the following semi-quantitative scale 0=no odor 1=very slight odor […] The higher alcohols tested were alkanols of chain length C8, C9, C10, C11, C12, C14, C16 and C18.

[2] = test system: bacteria and yeast tested; test: Agar plate growth inhibition, summary statements over the test microorganisms; format: cell-based; conditions: Table VI microorganisms
Method: (§1) The higher alcohols were tested for antimicrobial activity against Gram positive bacteria (Streptococcus mutans), Gram negative bacteria (Pseudomonas spp., Escherichia coli, […]) and the yeast Candida albicans. […] Five microliters of the higher alcohol solutions were placed on the surface of a rich (Brain-heart infusion) agar plate immediately after seeding with a mono-specific bacterial or yeast culture. The plates were incubated for 24-48 hours, and, following further microbial proliferation, the diameters of the zones of growth inhibition were measured (results expressed in centimeters). In a further set of experiments, the effect of solvent type on the antimicrobial activity of the C9 alcohol was investigated. […] These solutions were tested for antimicrobial activity towards three microorganisms (M. lysodeikticus, S. mutans and Corynebacterium xerosis) using the same assay as described above. The relationship of the concentration of the C9 alcohol to its antimicrobial activity was also investigated. […] These solutions were tested in the assay described above for their ability to inhibit the growth of the bacteria M. lysodeikticus and S. mutans.

E. coli = test: Agar plate zone of growth inhibition; format: cell-based, Escherichia coli; conditions: for inhibition of E. coli (summary): 1% in 100% ethanol
Method: (§2) The higher alcohols were tested for antimicrobial activity against Gram positive bacteria (Streptococcus mutans), Gram negative bacteria (Pseudomonas spp., Escherichia coli, […]) and the yeast Candida albicans. […] Five microliters of the higher alcohol solutions were placed on the surface of a rich (Brain-heart infusion) agar plate immediately after seeding with a mono-specific bacterial or yeast culture. The plates were incubated for 24-48 hours, and, following further microbial proliferation, the diameters of the zones of growth inhibition were measured (results expressed in centimeters).

S. mutans = test: Agar plate zone of growth inhibition; format: cell-based, Streptococcus mutans; conditions: for inhibition of S. mutans (summary): 1% in 100% ethanol
Method: as §1

M. lysodeikticus = test: Agar plate zone of growth inhibition; format: cell-based; conditions: solvent alone (100%), no C9
Method: Five microliters of the higher alcohol solutions were placed on the surface of a rich (Brain-heart infusion) agar plate immediately after seeding with a mono-specific bacterial or yeast culture. The plates were incubated for 24-48 hours, and, following further microbial proliferation, the diameters of the zones of growth inhibition were measured (results expressed in centimeters). In a further set of experiments, the effect of solvent type on the antimicrobial activity of the C9 alcohol was investigated. […] These solutions were tested for antimicrobial activity towards three microorganisms (M. lysodeikticus, S. mutans and Corynebacterium xerosis) using the same assay as described above. The relationship of the concentration of the C9 alcohol to its antimicrobial activity was also investigated. […] These solutions were tested in the assay described above for their ability to inhibit the growth of the bacteria M. lysodeikticus and S. mutans.

C. xerosis = test: Agar plate zone of growth inhibition; format: cell-based, Corynebacterium xerosis; conditions: solvent alone (100%), no C9
Method: Five microliters of the higher alcohol solutions were placed on the surface of a rich (Brain-heart infusion) agar plate immediately after seeding with a mono-specific bacterial or yeast culture. The plates were incubated for 24-48 hours, and, following further microbial proliferation, the diameters of the zones of growth inhibition were measured (results expressed in centimeters). In a further set of experiments, the effect of solvent type on the antimicrobial activity of the C9 alcohol was investigated. […] These solutions were tested for antimicrobial activity towards three microorganisms (M. lysodeikticus, S. mutans and Corynebacterium xerosis) using the same assay as described above.

Pseudomonas aeruginosa = test: Agar plate zone of growth inhibition; format: cell-based
Method: as §2

E. faecalis = test: Agar plate zone of growth inhibition; format: cell-based
Method: as §2

C. albicans = test: Agar plate zone of growth inhibition; format: cell-based, Candida albicans
Method: as §2

[3] = 10 μl of 1% solution, scale 0-5
[4] = 20 μl of 1% solution, scale 0-5
[5] = 30 μl of 1% solution, scale 0-5
[6] = 40 μl of 1% solution, scale 0-5
[7] = 50 μl of 1% solution (C8-C12 in 70% ethanol, C14-C18 in 100% ethanol) in 5 ml medium + 200 μl saliva, 3 days 37° C., scale 0 no odor to 5 extremely foul
[8] = 50 μl of 1% solution, scale 0-5
[9] = 5 μl of 1% solution (C8-C12 in 70% ethanol, C14-C18 in 100% ethanol)
[10] = 70% ethanol alone, 100 μl, scale 0-5
[11] = 70% ethanol alone, 200 μl, scale 0-5
[12] = 5 μl of 0.1% solution in 70% ethanol

Row | Compound | Odor Score (Judge 1) [1, 3] | Odor Score (Judge 2) [1, 3] | Odor Score (Judge 1) [1, 4] | Odor Score (Judge 2) [1, 4] | Odor Score (Judge 1) [1, 5] | Odor Score (Judge 2) [1, 5] | Odor Score (Judge 1) [1, 6] | Odor Score (Judge 2) [1, 6] | Odor Score (Judge 1) [1, 7] | Odor Score (Judge 2) [1, 8] | effect on microbial growth (summary) [2] | diameter of zone of growth inhibition, E. coli (E. coli; [9]) | diameter of zone of growth inhibition, Pseudomonas aeruginosa (Pseudomonas aeruginosa; [9]) | other results
1 | N=C(NCCCCCCNC(=N)NC(=N)Nc1ccc(Cl)cc1)NC(=N)Nc1ccc(Cl)cc1.O=C(O)[C@H](O)[C@@H](O)[C@H](O)[C@H](O)CO.O=C(O)[C@H](O)[C@@H](O)[C@H](O)[C@H](O)CO [CHX, chlorhexidine digluconate, reference compound] | 2 | 1 | 0 | 0 | 0 | 0 | 0 | 0 |  |  |  |  |  | Odor Score (Judge 1) ([1]; 5 μl of 1% solution, scale 0-5): 4; Odor Score (Judge 2) ([1]; 5 μl of 1% solution, scale 0-5): 4.5
2 | CCCCCCCCCCCCCCCC[n+]1ccccc1 [CPC, cetylpyridinium chloride, reference compound] | 2 | 2.5 | 0 | 0 |  |  |  |  |  |  |  |  |  | Odor Score (Judge 1) ([1]; 5 μl of 1% solution, scale 0-5): 4; Odor Score (Judge 2) ([1]; 5 μl of 1% solution, scale 0-5): 4
3 | CC(C)O [2-propanol, reference compound] |  |  |  |  |  |  |  |  |  |  |  |  |  | diameter of zone of growth inhibition, M. lysodeikticus (M. lysodeikticus): 1.1 centimeters; diameter of zone of growth inhibition, C. xerosis (C. xerosis): 0.8 centimeters; diameter of zone of growth inhibition, S. mutans (S. mutans; solvent alone (100%), no C9): 0.9 centimeters
4 | CO [methanol, reference compound] |  |  |  |  |  |  |  |  |  |  |  |  |  | diameter of zone of growth inhibition, C. xerosis (C. xerosis): 0.7 centimeters
5 | CCO [Ethanol, ethanol, reference compound] |  |  |  |  |  |  |  |  |  |  |  |  |  | Odor Score (Judge 1) [1, 10]: 5; Odor Score (Judge 2) [1, 10]: 4.5; Odor Score (Judge 1) [1, 11]: 4; Odor Score (Judge 2) [1, 11]: 4.5; diameter of zone of growth inhibition, Pseudomonas aeruginosa (Pseudomonas aeruginosa; 5 μl of 70% Ethanol alone): + −; diameter of zone of growth inhibition, E. coli (E. coli; 5 μl of 100% Ethanol alone): 1.0 centimeters; diameter of zone of growth inhibition, S. mutans (S. mutans; 5 μl of 100% Ethanol alone): + −
6 | CCCCCCCCCCCO [C11, 1-undecanol] | 5 | 5 | 0 | 0.5 | 0 | 0 | 0 | 0 | 0 | 0 | inhibit microbial growth | 0.7 centimeters | 0.7 centimeters | effect on in vitro odor formation (summary) [1]: inhibition of odor formation; diameter of zone of growth inhibition, Pseudomonas aeruginosa (Pseudomonas aeruginosa; [12]): 0.4 centimeters; diameter of zone of growth inhibition, E. faecalis (E. faecalis; [12]): 1.0 centimeters; diameter of zone of growth inhibition, C. albicans (C. albicans; [12]): 0.7 centimeters; diameter of zone of growth inhibition, C. albicans (C. albicans; [9]): 0.8 centimeters; diameter of zone of growth inhibition, E. coli (E. coli; [12]): 0.7 centimeters
7 | OCC(O)CO [glycerol, reference compound] |  |  |  |  |  |  |  |  |  |  |  |  |  | diameter of zone of growth inhibition, C. xerosis (C. xerosis): 0.2 centimeters
8 | CCCCCCCCCCO [C10, 1-decanol] | 4 | 4 | 0 | 0 | 0 | 0 | 0 | 0 | 0 | 0 | inhibit microbial growth | 0.7 centimeters | 0.8 centimeters | effect on in vitro odor formation (summary) [1]: inhibition of odor formation; diameter of zone of growth inhibition, Pseudomonas aeruginosa (Pseudomonas aeruginosa; [12]): 0.8 centimeters; diameter of zone of growth inhibition, E. faecalis (E. faecalis; [12]): 0.9 centimeters; diameter of zone of growth inhibition, C. albicans (C. albicans; [12]): 0.7 centimeters; diameter of zone of growth inhibition, C. albicans (C. albicans; [9]): 0.8 centimeters; diameter of zone of growth inhibition, E. coli (E. coli; [12]): 0.8 centimeters

More lines, main results first:

Row | Odor Score (Judge 1) [1, 3] | Odor Score (Judge 2) [1, 3] | Odor Score (Judge 1) [1, 4] | Odor Score (Judge 2) [1, 4] | Odor Score (Judge 1) [1, 5] | Odor Score (Judge 2) [1, 5] | Odor Score (Judge 1) [1, 6] | Odor Score (Judge 2) [1, 6] | Odor Score (Judge 1) [1, 7] | Odor Score (Judge 2) [1, 8] | Compound | effect on microbial growth (summary) [2] | diameter of zone of growth inhibition, E. coli (E. coli; [9]) | diameter of zone of growth inhibition, Pseudomonas aeruginosa (Pseudomonas aeruginosa; [9]) | other results
9 | 5 | 5 | 5 | 5 | 5 | 5 | 5 | 5 | 4 | 4 | CCCCCCCCCCCCCCO [C14] | inhibit microbial growth | 0.9 centimeters |  | diameter of zone of growth inhibition, S. mutans (S. mutans; [9]): 1.0 centimeters
10 | 5 | 5 | 5 | 5 | 5 | 5 | 5 | 5 | 4 | 4 | CCCCCCCCCCCCCCCCO [C16] |  | 0.7 centimeters |  | inhibition of E. coli (summary) (E. coli): moderate inhibition; inhibition of S. mutans (summary) (S. mutans): not of S. mutans; diameter of zone of growth inhibition, S. mutans (S. mutans; [9]): + −
11 | 5 | 5 | 5 | 5 | 5 | 5 | 4 | 4 | 3.5 | 4 | CCCCCCCCCCCCCCCCCCO [C18] |  | 0.8 centimeters |  | inhibition of E. coli (summary) (E. coli): moderate inhibition; inhibition of S. mutans (summary) (S. mutans): not of S. mutans; diameter of zone of growth inhibition, S. mutans (S. mutans; [9]): + −
12 | 5 | 5 | 4 | 4 | 3 | 3 | 2 | 3 | 2 | 3.5 | CCCCCCCCCCCCO [C12] | inhibit microbial growth |  | + − | diameter of zone of growth inhibition, Pseudomonas aeruginosa (Pseudomonas aeruginosa; [12]): + −; diameter of zone of growth inhibition, E. faecalis (E. faecalis; [9]): 0.7 centimeters; diameter of zone of growth inhibition, C. albicans (C. albicans; [12]): 0.6 centimeters; diameter of zone of growth inhibition, E. coli (E. coli; [12]): 0.6 centimeters
13 | 4 | 3 | 3 | 3 | 3 | 3 | 4 | 3 | 4 | 4 | CCCCCCCCO [C8] |  |  | 0.5 centimeters | diameter of zone of growth inhibition, E. faecalis (E. faecalis; [9]): + −; inhibition of the yeast C. albicans (summary) (C. albicans; opaque inhibition zone on the agar plate): only partial inhibition
